Source: the NIST ThermoML archive (doi:10.1021/je700754k)
± gives the expanded uncertainty stated by the source.

Experiments:
[1] = xn = mol fraction of the nth substance listed; settings: 101 kPa, Liquid
[2] = excess molar enthalpy (molar enthalpy of mixing); xn = mol fraction of the nth substance listed; settings: 303.15 K, 101 kPa, Liquid, Calvet calorimetry

C[N+](=O)[O-] [nitromethane] + CCCCn1cc[n+](C)c1.F[B-](F)(F)F
mass density [kg/m3], [1]
Settings | 293.15 K | 303.15 K | 313.15 K | 323.15 K
x2 = 0 | 1137.98 ± 1.9 | 1124.39 ± 1.8 | 1110.68 ± 1.7 | 1096.88 ± 1.6
x2 = 0.0512 | 1154.27 ± 2 | 1142.08 ± 1.9 | 1129.84 ± 1.8 | 1117.57 ± 1.7
x2 = 0.0991 | 1164.29 ± 2 | 1152.98 ± 1.9 | 1141.66 ± 1.9 | 1130.32 ± 1.8
x2 = 0.1392 | 1170.56 ± 2 | 1159.82 ± 2 | 1149.08 ± 1.9 | 1138.35 ± 1.8
x2 = 0.2026 | 1178.15 ± 2 | 1168.09 ± 2 | 1158.06 ± 1.9 | 1148.05 ± 1.8
x2 = 0.2986 | 1186.08 ± 2 | 1176.78 ± 1.9 | 1167.52 ± 1.9 | 1158.31 ± 1.8
x2 = 0.3565 | 1189.62 ± 2 | 1180.67 ± 1.9 | 1171.76 ± 1.9 | 1162.9 ± 1.8
x2 = 0.3972 | 1191.64 ± 2 | 1182.9 ± 1.9 | 1174.2 ± 1.9 | 1165.55 ± 1.8
x2 = 0.4553 | 1194.13 ± 1.9 | 1185.65 ± 1.9 | 1177.21 ± 1.8 | 1168.83 ± 1.8
x2 = 0.5231 | 1196.42 ± 1.9 | 1188.18 ± 1.9 | 1179.99 ± 1.8 | 1171.87 ± 1.8
x2 = 0.5949 | 1198.48 ± 1.9 | 1190.48 ± 1.8 | 1182.53 ± 1.8 | 1174.65 ± 1.7
x2 = 0.6863 | 1200.57 ± 1.9 | 1192.82 ± 1.8 | 1185.11 ± 1.8 | 1177.48 ± 1.7
x2 = 0.8073 | 1202.6 ± 1.8 | 1195.13 ± 1.8 | 1187.69 ± 1.7 | 1180.33 ± 1.7
x2 = 0.8634 | 1203.37 ± 1.8 | 1196.01 ± 1.8 | 1188.69 ± 1.7 | 1181.43 ± 1.7

[2]
Settings | excess molar enthalpy [kcal/mol]
x2 = 0.0016 | -0.00167 ± 0.000239
x2 = 0.0273 | -0.022 ± 0.00191
x2 = 0.0558 | -0.0435 ± 0.00359
x2 = 0.1131 | -0.0686 ± 0.0055
x2 = 0.202 | -0.097 ± 0.00789
x2 = 0.3621 | -0.116 ± 0.00932
x2 = 0.5067 | -0.108 ± 0.0086
x2 = 0.6037 | -0.0978 ± 0.00789
x2 = 0.7226 | -0.0755 ± 0.00598
x2 = 0.8827 | -0.038 ± 0.00311

CCCCn1cc[n+](C)c1.COS(=O)(=O)[O-] [1-butyl-3-methylimidazolium methyl sulfate] + CCO
mass density [kg/m3], [1]
Settings | 293.15 K | 303.15 K | 313.15 K | 323.15 K
x1 = 0.0459 | 854.75 ± 0.74 | 846.48 ± 0.76 | 838.14 ± 0.79 | 829.69 ± 0.82
x1 = 0.0987 | 913.25 ± 0.56 | 905.23 ± 0.59 | 897.17 ± 0.61 | 889.06 ± 0.64
x1 = 0.142 | 952 ± 0.46 | 944.14 ± 0.48 | 936.26 ± 0.5 | 928.36 ± 0.52
x1 = 0.1905 | 988.2 ± 0.38 | 980.49 ± 0.4 | 972.79 ± 0.41 | 965.08 ± 0.43
x1 = 0.2357 | 1016.76 ± 0.39 | 1009.19 ± 0.38 | 1001.63 ± 0.36 | 994.07 ± 0.37
x1 = 0.2733 | 1037.27 ± 0.44 | 1029.8 ± 0.42 | 1022.32 ± 0.4 | 1014.88 ± 0.39
x1 = 0.3516 | 1073.29 ± 0.53 | 1065.97 ± 0.51 | 1058.67 ± 0.49 | 1051.41 ± 0.47
x1 = 0.4381 | 1104.9 ± 0.63 | 1097.71 ± 0.6 | 1090.57 ± 0.58 | 1083.48 ± 0.56
x1 = 0.5335 | 1132.61 ± 0.7 | 1125.56 ± 0.68 | 1118.55 ± 0.66 | 1111.6 ± 0.64
x1 = 0.5712 | 1141.96 ± 0.73 | 1134.95 ± 0.7 | 1127.99 ± 0.68 | 1121.09 ± 0.66
x1 = 0.6742 | 1163.83 ± 0.79 | 1156.95 ± 0.77 | 1150.1 ± 0.74 | 1143.31 ± 0.72
x1 = 0.7665 | 1180.16 ± 0.83 | 1173.37 ± 0.81 | 1166.61 ± 0.79 | 1159.9 ± 0.77
x1 = 0.8482 | 1192.27 ± 0.87 | 1185.55 ± 0.85 | 1178.85 ± 0.82 | 1172.21 ± 0.8
x1 = 0.9248 | 1202.35 ± 0.9 | 1195.72 ± 0.87 | 1189.08 ± 0.85 | 1182.49 ± 0.83
x1 = 1 | 1211.17 ± 0.92 | 1204.48 ± 0.9 | 1197.92 ± 0.88 | 1191.39 ± 0.86

[2]
Settings | excess molar enthalpy [kcal/mol]
x1 = 0.016 | 0.0504 ± 0.00406
x1 = 0.0338 | 0.088 ± 0.00717
x1 = 0.1032 | 0.206 ± 0.0165
x1 = 0.1897 | 0.277 ± 0.0222
x1 = 0.2821 | 0.316 ± 0.0263
x1 = 0.3379 | 0.305 ± 0.0239
x1 = 0.5068 | 0.256 ± 0.0206
x1 = 0.5946 | 0.229 ± 0.0184
x1 = 0.7119 | 0.166 ± 0.0134
x1 = 0.7889 | 0.122 ± 0.0098
x1 = 0.9083 | 0.0526 ± 0.0043

CCCCn1cc[n+](C)c1.COS(=O)(=O)[O-] [1-butyl-3-methylimidazolium methyl sulfate] + C[N+](=O)[O-]
mass density [kg/m3], [1]
Settings | 293.15 K | 303.15 K | 313.15 K | 323.15 K
x1 = 0.0398 | 1152.79 ± 2 | 1140.52 ± 1.9 | 1128.19 ± 1.8 | 1115.81 ± 1.7
x1 = 0.1021 | 1167.13 ± 2 | 1156.18 ± 2 | 1145.2 ± 1.9 | 1134.22 ± 1.8
x1 = 0.1433 | 1174.03 ± 2.1 | 1163.71 ± 2 | 1153.39 ± 1.9 | 1143.09 ± 1.8
x1 = 0.1988 | 1181.04 ± 2.1 | 1171.38 ± 2 | 1161.73 ± 1.9 | 1152.11 ± 1.9
x1 = 0.2444 | 1185.56 ± 2 | 1176.34 ± 2 | 1167.13 ± 1.9 | 1157.97 ± 1.9
x1 = 0.2998 | 1189.98 ± 2 | 1181.18 ± 2 | 1172.41 ± 1.9 | 1163.68 ± 1.9
x1 = 0.3979 | 1195.81 ± 2 | 1187.57 ± 1.9 | 1179.37 ± 1.9 | 1171.23 ± 1.8
x1 = 0.4786 | 1199.41 ± 2 | 1191.53 ± 1.9 | 1183.69 ± 1.9 | 1175.91 ± 1.8
x1 = 0.5652 | 1202.31 ± 1.9 | 1194.73 ± 1.9 | 1187.19 ± 1.8 | 1179.71 ± 1.8
x1 = 0.7127 | 1206.24 ± 1.9 | 1199.08 ± 1.8 | 1191.95 ± 1.8 | 1184.88 ± 1.7
x1 = 0.8212 | 1208.19 ± 1.9 | 1201.28 ± 1.8 | 1194.38 ± 1.8 | 1187.53 ± 1.7
x1 = 0.8546 | 1208.81 ± 1.9 | 1201.97 ± 1.8 | 1195.14 ± 1.8 | 1188.36 ± 1.7
x1 = 1 | 1211.16 ± 1.8 | 1204.45 ± 1.8 | 1197.88 ± 1.8 | 1191.35 ± 1.7

[2]
Settings | excess molar enthalpy [kcal/mol]
x1 = 0.0804 | -0.038 ± 0.00311
x1 = 0.1617 | -0.0681 ± 0.0055
x1 = 0.2832 | -0.0946 ± 0.00765
x1 = 0.394 | -0.111 ± 0.00884
x1 = 0.4351 | -0.108 ± 0.0086
x1 = 0.5566 | -0.0999 ± 0.00813
x1 = 0.6675 | -0.0884 ± 0.00717
x1 = 0.7671 | -0.0652 ± 0.00526
x1 = 0.8761 | -0.0311 ± 0.00263

CCCCn1cc[n+](C)c1.F[B-](F)(F)F [1-butyl-3-methylimidazolium tetrafluoroborate] + C[N+](=O)[O-]
[1], x1 = 1
Settings | mass density [kg/m3]
293.15 K | 1204.99 ± 1.8
303.15 K | 1197.89 ± 1.8
313.15 K | 1190.81 ± 1.7
323.15 K | 1183.78 ± 1.7

CCCCn1cc[n+](C)c1.F[B-](F)(F)F [1-butyl-3-methylimidazolium tetrafluoroborate] + CCO
mass density [kg/m3], [1]
Settings | 293.15 K | 303.15 K | 313.15 K | 323.15 K
x1 = 0.0517 | 854.59 ± 0.74 | 846.27 ± 0.76 | 837.83 ± 0.79 | 829.27 ± 0.82
x1 = 0.0918 | 895.67 ± 0.62 | 887.54 ± 0.64 | 879.27 ± 0.67 | 870.9 ± 0.69
x1 = 0.1479 | 943.11 ± 0.48 | 935.12 ± 0.5 | 927.02 ± 0.52 | 918.84 ± 0.55
x1 = 0.1995 | 980.07 ± 0.4 | 972.15 ± 0.41 | 964.15 ± 0.43 | 956.11 ± 0.45
x1 = 0.2518 | 1011.33 ± 0.38 | 1003.46 ± 0.36 | 995.56 ± 0.36 | 987.64 ± 0.38
x1 = 0.3228 | 1046.79 ± 0.46 | 1039.01 ± 0.44 | 1031.22 ± 0.42 | 1023.46 ± 0.41
x1 = 0.4219 | 1085.81 ± 0.57 | 1078.14 ± 0.54 | 1070.51 ± 0.52 | 1062.91 ± 0.5
x1 = 0.5356 | 1120.88 ± 0.67 | 1113.35 ± 0.64 | 1105.88 ± 0.62 | 1098.46 ± 0.6
x1 = 0.6244 | 1142.66 ± 0.72 | 1135.23 ± 0.7 | 1127.86 ± 0.68 | 1120.54 ± 0.66
x1 = 0.709 | 1160.24 ± 0.77 | 1152.89 ± 0.75 | 1145.59 ± 0.73 | 1138.37 ± 0.7
x1 = 0.8295 | 1181.36 ± 0.83 | 1174.12 ± 0.81 | 1166.93 ± 0.79 | 1159.8 ± 0.77
x1 = 0.9327 | 1196.33 ± 0.88 | 1189.16 ± 0.85 | 1182.04 ± 0.83 | 1174.97 ± 0.81
x1 = 1 | 1204.93 ± 0.9 | 1197.83 ± 0.88 | 1190.74 ± 0.86 | 1183.72 ± 0.83

[2]
Settings | excess molar enthalpy [kcal/mol]
x1 = 0.0201 | 0.086 ± 0.00693
x1 = 0.0573 | 0.204 ± 0.0163
x1 = 0.1005 | 0.307 ± 0.0239
x1 = 0.1962 | 0.467 ± 0.0382
x1 = 0.3371 | 0.591 ± 0.0478
x1 = 0.4225 | 0.624 ± 0.0502
x1 = 0.5001 | 0.6 ± 0.0478
x1 = 0.5874 | 0.545 ± 0.043
x1 = 0.6333 | 0.49 ± 0.0406
x1 = 0.7422 | 0.399 ± 0.0311
x1 = 0.8291 | 0.277 ± 0.0222
x1 = 0.9257 | 0.149 ± 0.012

C[N+](=O)[O-] [nitromethane] + CCCCn1cc[n+](C)c1.COS(=O)(=O)[O-]
[1], x2 = 0
Settings | mass density [kg/m3]
293.15 K | 1137.92 ± 1.9
303.15 K | 1124.32 ± 1.8
313.15 K | 1110.62 ± 1.7
323.15 K | 1096.82 ± 1.6

CCO [ethanol] + CCCCn1cc[n+](C)c1.COS(=O)(=O)[O-]
[1], x2 = 0
Settings | mass density [kg/m3]
293.15 K | 789.53 ± 0.94
303.15 K | 780.94 ± 0.96
313.15 K | 772.2 ± 0.99
323.15 K | 763.28 ± 1

CCO [ethanol] + CCCCn1cc[n+](C)c1.F[B-](F)(F)F
[1], x2 = 0
Settings | mass density [kg/m3]
293.15 K | 789.38 ± 0.94
303.15 K | 780.78 ± 0.96
313.15 K | 772.04 ± 0.99
323.15 K | 763.14 ± 1
